Source: PMC11106165, “Repurposing the KCa3.1 Blocker Senicapoc for Ischemic Stroke” (Translational Stroke Research, 2023)
Several values for one entry are separate records, joined by “and”; a condition that tells them apart may be missing. Identical values can stand only once. Like-named read-outs stand apart in the source and are kept apart here.

Experiments:
[1] = test system: male C57BL/6 J mice, tMCAO; test: Immunohistochemistry (Iba-1, CD3, NeuN) of infarcted hemisphere on day 8 after MCAO; type: in vivo, mouse
Description: After the MRI on day 8, animals were euthanized with an overdose of isoflurane, and brains were quickly removed and sectioned into four 2-mm-thick coronal slices starting from the frontal pole. […] Cell nuclei were visualized with 4′,6-diamidino-2-phenylindole (DAPI).
The images were then opened on the BZ-X Analyzer, the left (infarcted) hemisphere for each section extracted and analyzed with a macro within the “Hybrid Cell Count” feature of the BZ-X Analyzer program. Images were thresholded to exclusively the area of stained cells without considering artifacts, ventricles, or folds. Each macro-generated image was verified by careful visual inspection. Results for Iba1 and CD3 are reported as percentage of section area (µm^2) that was positively stained, divided by total section area (µm^2) in the infarcted left hemisphere. NeuN is reported as the inverse of the percentage of section area (µm^2) that was positively stained, divided by total section area (µm^2) in the infarcted left hemisphere in order to quantify the Neu negative area.

[2] = Plasma protein binding by rapid equilibrium dialysis; type: in vitro ADME; details: mouse plasma, triplicate
Protocol: In order to determine whether senicapoc sufficiently engages its target, additional mice were subjected to 60 min of MCAO, treated with 40 mg/kg senicapoc IP 12 h after reperfusion and then sacrificed 1 h, 4 h, and 12 h later. Mice were deeply anesthetized with isoflurane, and blood was collected from the vena cava into EDTA tubes, and then transcardially perfused with 30 mL of saline. The brain was removed, and the forebrain divided into ipsi- and contralateral side. Brain and plasma samples were stored at − 80 °C pending analysis and then prepared and analyzed as previously described using a Waters Acquity UPLC (Waters, NY) equipped with a Acquity UPLC BEH 1.7 μm C-18 column interfaced to a TSQ Quantum Access Max mass spectrometer (Thermo Fisher Scientific, MA). Senicapoc was analyzed by the selective reaction monitoring transition of its molecular ion peak 324.09 (M + 1) into 228.07, 200.07, 183.11, and 122.18 m/z. An 8-point calibration curve ranging from 50 nM to 10 μM was used for quantification. Senicapoc plasma protein binding was determined with mouse plasma or mouse brain extract in triplicate using rapid equilibrium devices with a molecular weight cutoff of 8 kD (RED, Fisher Scientific).

[3] = target: T1, KCa3.1 (Mus musculus, UniProt O89109); test: Whole-cell patch-clamp of KCa3.1 currents in mouse microglial cells (MMC); type: cell-based; details: 1 µM free Ca2+, ramp -120 to +40 mV, mean ± 95% confidence interval, n = 4, read-out: IC50 for block of microglial KCa3.1 currents
T1 construct: endogenous in cells; host or cells: immortalized mouse microglial cell (MMC) line
Protocol: An immortalized mouse microglial cell (MMC) line was kindly provided by Dr. D.T. Golenbock (University of Massachusetts Medical School, Worcester, MA) and previously used by our laboratory. Cells were cultured in Gibco’s Dulbecco’s modified Eagle’s Medium (DMEM, high glucose, L-glutamine, high pyruvate) with 5% CO2 at 37° with 1% penicillin/streptomycin and 10% fetal bovine serum. For the qPCR experiments, cells were seeded at 200,000 cells/mL; 24 h later, medium was changed to DMEM with 2% FBS and cells were stimulated with 100 ng/mL lipopolysaccharide (LPS), in the presence or absence of senicapoc, or a 0.2% DMSO control. Cells were pre-incubated with senicapoc for 1 h prior to stimulation and harvested 24 h after stimulation.
MMCs were plated on poly-lysine-coated glass coverslips and KCa3.1 currents recorded in the whole-cell mode of the patch-clamp technique with an EPC-10 HEKA amplifier and 1 microM of free Ca^2+ in the pipette solution as previously described.

[4] = test system: male C57BL/6 J mice, tMCAO; test: tMCAO in mice, 14-point tactile and proprioceptive limb-placing score; type: in vivo, mouse; details: for maximum neurological score reached: vehicle maximum 5; for average neurological score (14-point): started 12 h, day 8, vehicle average 3
Protocol: Reversible focal cerebral ischemia was induced by occlusion of the left middle cerebral artery (MCA) according to the classic filament method of Zea Longa as previously described for mice by our laboratory. All surgeries were performed in the MicroSurgery Core of the UC Davis School of Medicine by a microsurgeon with 20 years of surgical experience using a silicone rubber-coated nylon monofilament with a tip diameter of 0.21 ± 0.02 mm (No. 702112PK5Re, Doccol Corporation). Anesthesia was induced with 5% isoflurane and then maintained with 0.5 to 1.5% isoflurane in medical pure oxygen administered through a facemask. To assure consistent and continuous reduction of cerebral blood flow (CBF), a laser Doppler (Moor Instruments: MOORVMS-LDF) probe adapter was affixed to the surface of the skull over the brain area supplied by the MCA using dental cement. The probe remained in place throughout the MCAO surgery and CBF was measured continuously to confirm occlusion and later establishment of reperfusion. Animals were kept under anesthesia and body temperature was monitored throughout the whole procedure and maintained at > 36.5 °C using a feedback-controlled heating pad. Following 60 min of MCAO, the filament was withdrawn to allow reperfusion. Blood flow measurements were continued for another 15 min before removing the adapter and the laser Doppler probe. Animals received subcutaneous Buprenex at 0.02 mg/kg every 12 h to limit post-surgical pain for 24 h after surgery. The survival rate was 93%. […] In this study, out of the animals surviving to day 8 (45 out of 48), two animals were excluded because they lacked an obvious neurological deficit score at 12 h. Animals that met inclusion criteria were assigned to the 3 groups (low- and high-dose senicapoc or vehicle) based on a computer-generated randomization scheme. Six sham animals, where the filament was placed into the external carotid artery but not advanced, were used as controls for the qPCR experiments.
Starting at 12 h after tMCAO, and following the first neurological scoring, animals received either the vehicle, Miglyol 812 neutral oil (Medium chain triglycerides, Spectrum Chemicals), a low dose of senicapoc at 10 mg/kg, or a high dose of senicapoc at 40 mg/kg via intraperitoneal (IP) injection. Mice then received the same dosage of senicapoc (or vehicle) IP every 12 h for a total of 14 doses. In the experiment in Fig. 7, drug administration was started 3 h after reperfusion. Senicapoc was synthesized in our laboratory as described. Chemical identity and purity (> 98%) were tested by ^1H and ^13C-NMR and HPLC.
Since filament MCAO induces infarction in both the striatum and the cortex, we used the 14-point score tactile and proprioceptive limp-placing test to evaluate mice every 24 h. […] The scoring was performed as previously described in detail. The investigator performing the scoring was blinded to the treatment groups.

[5] = humans; cited from earlier work
[6] = parameters: method as in PMID 31019997; details: mice; cited from earlier work

## NC(=O)C(c1ccccc1)(c1ccc(F)cc1)c1ccc(F)cc1 [senicapoc]
[1]
  neuronal death (NeuN-negative area): decreases neuronal death
[1]; 40 mg/kg
  T cell infiltration (CD3 staining): significantly reduced
  microglia/macrophage activation and infiltration (Iba1 staining): significantly reduced
[2]
  binding to plasma protein: 96.8 ± 0.5%
[3]
  IC50: 7 nM and 6.97 nM
[4]; 10 mg/kg low-dose group
  maximum neurological score reached: 9
[4]; 10 mg/kg
  average neurological score (14-point): 7
[4]; 40 mg/kg high-dose group
  maximum neurological score reached: 10
[4]; 40 mg/kg started 3 h after tMCAO
  sensorimotor coordination (neurological deficit score): improved on both day 3 and day 8
[4]; 40 mg/kg
  average neurological score (14-point): 9
[5]
  half-life: 288 h
[6]
  half-life: 1 h
